molecular target: T1, PDE7B protein (Bos taurus) (UniProt A6QP37); assay: Inhibition of Bos taurus (bovine) heart cAMP-dependent phosphodiesterase assessed as inhibition of cyclic AMP to 5' AMP after 20 min by spectrophotometry relative to theophylline
T1 sequence (whole entry): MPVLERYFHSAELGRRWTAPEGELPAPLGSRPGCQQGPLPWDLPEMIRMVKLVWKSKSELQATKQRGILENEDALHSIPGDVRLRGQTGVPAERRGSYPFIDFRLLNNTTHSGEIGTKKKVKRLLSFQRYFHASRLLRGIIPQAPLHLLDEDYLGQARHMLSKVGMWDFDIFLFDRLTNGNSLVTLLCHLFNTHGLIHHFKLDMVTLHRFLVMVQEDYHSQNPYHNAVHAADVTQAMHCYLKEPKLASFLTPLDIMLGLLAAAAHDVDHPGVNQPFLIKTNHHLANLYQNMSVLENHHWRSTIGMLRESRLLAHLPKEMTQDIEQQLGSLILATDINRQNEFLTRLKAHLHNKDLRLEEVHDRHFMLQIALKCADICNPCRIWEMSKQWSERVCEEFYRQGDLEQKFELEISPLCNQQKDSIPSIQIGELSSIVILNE

Going from `CCOc1cccc2sc(-n3c(-c4ccccc4)nc4c(Br)cc(Br)cc4c3=O)nc12` to `COc1cccc2sc(-n3c(-c4ccccc4)nc4c(Br)cc(Br)cc4c3=O)nc12`, the Ratio falls from 1.21 to 1.18.

First: COc1cccc2sc(-n3c(-c4ccccc4)nc4ccccc4c3=O)nc12
Second: CCOc1cccc2sc(-n3c(-c4ccccc4)nc4ccccc4c3=O)nc12
The Ratio of the first is lower: 1.33 for the first, 1.38 for the second.

Compared with `COc1ccc2sc(-n3c(-c4ccccc4)nc4ccccc4c3=O)nc2c1`, `COc1ccc2nc(-n3c(-c4ccccc4)nc4ccccc4c3=O)sc2c1` is higher in Ratio: 1.34 for the first, 1.35 for the second.

Going from `Cc1cc(C)c2nc(-n3c(-c4ccccc4)nc4ccccc4c3=O)sc2c1` to `Cc1cccc2sc(-n3c(-c4ccccc4)nc4ccccc4c3=O)nc12`, the Ratio falls from 1.35 to 1.27.

First: O=c1c2ccccc2nc(-c2ccccc2)n1-c1nc2ccc(Br)cc2s1
Second: O=c1c2ccccc2nc(-c2ccccc2)n1-c1nc2ccc([N+](=O)[O-])cc2s1
The Ratio of the first is lower: 1.28 for the first, 1.47 for the second.

Compared with `O=c1c2ccccc2nc(-c2ccccc2)n1-c1nc2ccccc2s1`, `Cc1ccc2sc(-n3c(-c4ccccc4)nc4ccccc4c3=O)nc2c1` is higher in Ratio: 1.22 for the first, 1.29 for the second.

Compared with `O=c1c2cc(Br)cc(Br)c2nc(-c2ccccc2)n1-c1nc2cc(Cl)ccc2s1`, `Cc1ccc2sc(-n3c(-c4ccccc4)nc4c(Br)cc(Br)cc4c3=O)nc2c1` is higher in Ratio: 0.844 for the first, 1.13 for the second.

First: O=c1c2cc(Br)cc(Br)c2nc(-c2ccccc2)n1-c1nc2ccccc2s1
Second: O=c1c2cc(Br)cc(Br)c2nc(-c2ccccc2)n1-c1nc2ccc(Br)cc2s1
The Ratio of the first is higher: 1.08 for the first, 0.927 for the second.

Compared with `Cc1cc(C)c2nc(-n3c(-c4ccccc4)nc4c(Br)cc(Br)cc4c3=O)sc2c1`, `Cc1cccc2sc(-n3c(-c4ccccc4)nc4c(Br)cc(Br)cc4c3=O)nc12` is lower in Ratio: 1.17 for the first, 1.14 for the second.

Compared with `CCOc1ccc2nc(-n3c(-c4ccccc4)nc4ccccc4c3=O)sc2c1`, `CCOc1ccc2sc(-n3c(-c4ccccc4)nc4ccccc4c3=O)nc2c1` is higher in Ratio: 1.38 for the first, 1.41 for the second.

Compared with `O=c1c2cc(Br)cc(Br)c2nc(-c2ccccc2)n1-c1nc2ccc([N+](=O)[O-])cc2s1`, `COc1ccc2nc(-n3c(-c4ccccc4)nc4c(Br)cc(Br)cc4c3=O)sc2c1` is higher in Ratio: 0.869 for the first, 1.2 for the second.

First: O=c1c2ccccc2nc(-c2ccccc2)n1-c1nc2cc(Cl)ccc2s1
Second: COc1ccc2sc(-n3c(-c4ccccc4)nc4c(Br)cc(Br)cc4c3=O)nc2c1
The Ratio of the first is higher: 1.21 for the first, 1.18 for the second.

Compared with `CCOc1ccc2nc(-n3c(-c4ccccc4)nc4c(Br)cc(Br)cc4c3=O)sc2c1`, `CCOc1ccc2sc(-n3c(-c4ccccc4)nc4c(Br)cc(Br)cc4c3=O)nc2c1` is higher in Ratio: 1.19 for the first, 1.22 for the second.

`Cn1c(=O)c2[nH]cnc2n(C)c1=O` was tested, and the Ratio was 1.
